# Reference: patent publication US7223543B2, “Conjugated linoleic acid isomerase and a process for the production of conjugated linoleic acid” (Teagasc Dairy Products Research Centre, priority 2001, dated 2007)
# Tested on: B.breve 2258
# Test: Growth inhibition of B.breve 2258 by trilinolein compared with free linoleic acid
# Type: cell-based, Bifidobacterium breve
# Settings: compared with similar concentrations of free linoleic acid
# From the text: B.breve NCFB 2258 was further investigated for ability to utilise triglyceride bound linoleic acid as substrate for CLA production. B.breve NCFB 2258 was inoculated from a fully grown culture into MRS broth with added cysteine (0.05%) and trilinolein (C18:2, cis-9, cis-12, 99% pure, Sigma Chemical Co.), soybean oil and sunflower oil (purchased from a local grocery store) containing known linoleic acid concentrations. The triglyceride mixtures were sterile-filtered through 0.45 μm […] filters and added as 5 mg/ml aqueous solutions in 2.5% (v/v) Tween 80. Substantial vortexing was required to dissolve the fat particles. The volume of the triglyceride stock solutions added was calculated to give a final concentration of 0.2 mg linoleic acid/ml of broth. B.breve 2258 was inoculated into MRS broth in the presence of the triglyceride substrates under anaerobic conditions at 37° C. and incubated for 48 h.
smiles,measurement,value
CCCCC/C=C\C/C=C\CCCCCCCC(=O)OCC(COC(=O)CCCCCCC/C=C\C/C=C\CCCCC)OC(=O)CCCCCCC/C=C\C/C=C\CCCCC [trilinolein],growth inhibition of B.breve 2258,did not inhibit the growth of B.breve 2258 to the same extent as similar concentrations of free linoleic acid
